We go through eleven compounds from ChEMBL document CHEMBL1201862, “PubChem BioAssay data set” (2004).

Among the test systems are A549; MDA-MB-435; SN12C; DU-145; SK-OV-3; OVCAR-4; COLO 205; NCI-H23; HOP-92; SF-295; OVCAR-3; SK-MEL-2; SW-620; SF-268; NCI-H522; SNB-19; A498; CCRF-CEM.
Assay in all cases: growth of human tumour cells (NCI), 48 h

Molecules are shown by their SMILES.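 Tested at 5 concentrations; 48 h exposure; 96-well plates; endpoints linearly interpolated, else capped at highest concentration. GI50 is the concentration that inhibits growth by half.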 The source made the active and inactive calls. No stated cut-off is given here; in the data, active = GI50 up to about 1.1 µM and inactive = higher. Where a SMILES comes first, the peptide text is derived from it. A value given as a limit tells only on which side of the number the result lay.

In the case of `CN(C)Cc1ccc(O)c(CN(C)C)n1`, the GI50 with A549, in the assay on MDA-MB-435, in the assay on SN12C, with DU-145, in the assay with SK-OV-3 and with OVCAR-4 was > 100 µM (inactive) in each case. In addition, the GI50 in the assay with COLO 205, in the assay on NCI-H23, in the assay with HOP-92, with SF-295, with OVCAR-3 and with SK-MEL-2 was > 100 µM (inactive) each time. The GI50 in the assay on SW-620, in the assay on SF-268, in the assay on NCI-H522, with SNB-19 and with A498 was > 100 µM (inactive) in each case.
As to `O=c1c2cc3c(=O)n4c(cc(-c5ccccc5)c5cc(Cl)ccc54)nc3cc2nc2cc(-c3ccccc3)c3cc(Cl)ccc3n12`, the GI50 with A549, in the assay with MDA-MB-435, in the assay on SN12C, in the assay on DU-145, in the assay on SK-OV-3 and in the assay with COLO 205 was > 100 µM (inactive) in each case. Further, the GI50 with NCI-H23, in the assay with HOP-92, with SF-295, in the assay with CCRF-CEM, in the assay with OVCAR-3 and with SK-MEL-2 was > 100 µM (inactive) in each case. The GI50 was > 100 µM (inactive) in the assay on SW-620; > 100 µM (inactive) in the assay with SF-268; > 100 µM (inactive) in the assay with NCI-H522; 45.6 µM (inactive) with SNB-19; > 100 µM (inactive) in the assay on A498.
As for `Cc1cc2[nH]c3[nH]c(=O)[nH]c(=O)c3c2cc1C`, the GI50 in the assay with A549, in the assay on MDA-MB-435, with SN12C, in the assay with DU-145, in the assay on SK-OV-3 and with COLO 205 was > 100 µM (inactive) throughout. For the same compound, the GI50 is > 100 µM (inactive) with NCI-H23; > 100 µM (inactive) in the assay on HOP-92; > 100 µM (inactive) with SF-295; > 100 µM (inactive) in the assay with CCRF-CEM; 74.5 µM (inactive) in the assay on SK-MEL-2; > 100 µM (inactive) with SW-620. Further, the GI50 in the assay on SF-268 was > 100 µM (inactive); in the assay on NCI-H522, > 100 µM (inactive); in the assay on SNB-19, 89.3 µM (inactive); with A498, > 100 µM (inactive).
Consider `CCOC(=O)C1C(c2ccc3c(c2)OCO3)c2c(n[nH]c2O)CC1(O)OCC` (stereo unspecified), for which the GI50 in the assay with A549, in the assay with MDA-MB-435, in the assay on SN12C, in the assay with DU-145, with OVCAR-4 and in the assay on COLO 205 was > 100 µM (inactive) throughout. The GI50 in the assay on NCI-H23, in the assay with HOP-92, in the assay on SF-295, with CCRF-CEM, with OVCAR-3 and in the assay on SK-MEL-2 was > 100 µM (inactive) throughout. Moreover, the GI50 was > 100 µM (inactive) in the assay on SW-620; > 100 µM (inactive) in the assay with SF-268; > 100 µM (inactive) in the assay on NCI-H522; > 10 µM (inactive) with SNB-19; > 100 µM (inactive) in the assay with A498.
With `COc1nc(SC)nc2c1C(O)n1c(nc3ccccc31)S2` (stereo unspecified), the GI50 in the assay on A549 is 28.6 µM (inactive); with MDA-MB-435, 20.1 µM (inactive); in the assay with SN12C it was 24.3 µM (inactive); with DU-145, 53.7 µM (inactive); in the assay with SK-OV-3, 22.8 µM (inactive); in the assay on OVCAR-4 it was 17.4 µM (inactive). Also, the GI50 with NCI-H23 is 19.5 µM (inactive); with HOP-92, 23.3 µM (inactive); with SF-295, 20.7 µM (inactive); in the assay on CCRF-CEM, 2.32 µM (inactive); in the assay with OVCAR-3, 32.7 µM (inactive); in the assay with SK-MEL-2, 28.9 µM (inactive). In addition, the GI50 in the assay on SW-620 was 9.14 µM (inactive); in the assay with SF-268, 18.4 µM (inactive); in the assay on NCI-H522, 23 µM (inactive); with SNB-19, 25.2 µM (inactive); in the assay with A498, 16.3 µM (inactive).
Turning to `C=C1C(C2(C)C(OC(C)=O)CC(=O)OC(C)(COC(C)=O)C2CC(=O)OC)C(OC=O)C(OC(=O)C(O)C(C)CC)C2(C)C(c3ccoc3)CC(=O)C12O` (stereo unspecified), the GI50 in the assay on A549 was 3.56 µM (inactive); in the assay with MDA-MB-435, 6.61 µM (inactive); in the assay with SN12C it was 10.8 µM (inactive); in the assay on DU-145 it was 5.46 µM (inactive); with SK-OV-3, 0.78 µM (active); in the assay on OVCAR-4, 6.28 µM (inactive). Moreover, the GI50 is 3.66 µM (inactive) in the assay with COLO 205; > 73.5 µM (inactive) in the assay on NCI-H23; 7.35 µM (inactive) in the assay on HOP-92; 4.32 µM (inactive) in the assay on SF-295; 0.65 µM (active) with CCRF-CEM; > 42.7 µM (inactive) in the assay on OVCAR-3. Besides, the GI50 in the assay on SK-MEL-2 is > 31.4 µM (inactive); in the assay with SW-620, 2.08 µM (inactive); with SF-268 it was 3.72 µM (inactive); in the assay with NCI-H522, 0.83 µM (active); in the assay with A498, 4.52 µM (inactive).
With `C[N+](C)(CCNC(=O)c1cccc2cc3ccccc3nc12)Cc1ccc([N+](=O)[O-])cc1`, the GI50 in the assay with A549, in the assay on MDA-MB-435, in the assay on SN12C, in the assay with DU-145, in the assay with SK-OV-3 and in the assay on OVCAR-4 was > 100 µM (inactive) each time. Moreover, the GI50 in the assay on COLO 205, with NCI-H23, in the assay on HOP-92, in the assay with SF-295, in the assay with CCRF-CEM and with OVCAR-3 was > 100 µM (inactive) in each case. Also, the GI50 with SK-MEL-2, in the assay with SW-620, in the assay with SF-268, in the assay with NCI-H522, with SNB-19 and in the assay on A498 was > 100 µM (inactive) each time.
As to `Cc1ncc(CSC(=N)N)n1Cc1ccccc1`, the GI50 in the assay with A549 is > 100 µM (inactive); with MDA-MB-435, 30.7 µM (inactive); with SN12C, 43.5 µM (inactive); in the assay with DU-145 it was 22.5 µM (inactive); in the assay on SK-OV-3 it was > 100 µM (inactive); in the assay on OVCAR-4, 83 µM (inactive). The GI50 is 33.1 µM (inactive) in the assay with COLO 205; 65.8 µM (inactive) in the assay on NCI-H23; > 100 µM (inactive) in the assay with HOP-92; 63.7 µM (inactive) with SF-295; 51.6 µM (inactive) with OVCAR-3; > 100 µM (inactive) with SK-MEL-2. The GI50 was 45.5 µM (inactive) in the assay on SW-620; > 100 µM (inactive) in the assay with SF-268; 24.7 µM (inactive) in the assay on NCI-H522; > 100 µM (inactive) in the assay with SNB-19; > 100 µM (inactive) with A498.
As to `CCc1c(Cl)nc(Cl)nc1Cl`, the GI50 with A549 was 1.95 µM (inactive); with MDA-MB-435 it was 0.0834 µM (active); with SN12C it was 0.333 µM (active); in the assay with DU-145, 2.05 µM (inactive); with SK-OV-3, 3.07 µM (inactive); with OVCAR-4, 0.867 µM (active). The GI50 in the assay on COLO 205 was 0.0764 µM (active); with NCI-H23, 0.321 µM (active); with HOP-92 it was 0.565 µM (active); in the assay with SF-295 it was 2.05 µM (inactive); in the assay on CCRF-CEM it was < 0.0121 µM (active); in the assay with OVCAR-3, 0.104 µM (active). The GI50 in the assay on SW-620 was 0.0449 µM (active); with SF-268 it was 0.217 µM (active); with NCI-H522, 0.0132 µM (active); in the assay on SNB-19, 1.45 µM (inactive); in the assay on A498 it was 5.79 µM (inactive).
Turning to `CC(C)CC(NC(=O)C(Cc1ccccc1)NC(=O)C(Cc1c[nH]c2ccccc12)NC(=O)CNC(=O)C(N)Cc1ccc(O)cc1)C(=O)O` (stereo unspecified) (H-YGWFL-OH; configuration not given here), the GI50 in the assay with A549 was 37.4 µM (inactive); in the assay with MDA-MB-435, 34.9 µM (inactive); in the assay with SN12C it was 48.6 µM (inactive); in the assay with DU-145 it was 31.8 µM (inactive); with SK-OV-3 it was > 100 µM (inactive); with OVCAR-4, 30.2 µM (inactive). In addition, the GI50 was 16.4 µM (inactive) in the assay with COLO 205; 30.1 µM (inactive) in the assay on NCI-H23; 14 µM (inactive) in the assay on HOP-92; 49.7 µM (inactive) in the assay on SF-295; 42.6 µM (inactive) in the assay on CCRF-CEM; 23.2 µM (inactive) with OVCAR-3. Also, the GI50 in the assay with SK-MEL-2 was 81.3 µM (inactive); in the assay on SF-268, 47.3 µM (inactive); with NCI-H522, 34 µM (inactive); with SNB-19, 51.6 µM (inactive); in the assay on A498 it was 32.3 µM (inactive).
As to `C=C(C)[C@H]1C2=CC(C)=C(O2)[C@@H](O)[C@H](C(=C)C)CCC2=C[C@H]1OC2=O` [KALLOLIDE A], the GI50 with A549, in the assay on MDA-MB-435, in the assay with SN12C, with DU-145, with OVCAR-4 and with COLO 205 was > 100 µM (inactive) each time. Besides, the GI50 in the assay with HOP-92, with SF-295, in the assay with CCRF-CEM, in the assay with OVCAR-3, in the assay on SK-MEL-2 and in the assay on SW-620 was > 100 µM (inactive) in each case. The GI50 is > 100 µM (inactive) with SF-268, 87.7 µM (inactive) in the assay on NCI-H522, > 100 µM (inactive) with SNB-19 and > 100 µM (inactive) in the assay on A498.
